Source: US20250161428A1, “PREVENTING/TREATING PSEUDOMONAS AERUGINOSA INFECTION” (priority 2022, published 2025)
Where “and” joins values, the source holds several entries; their conditions need not be identical. Identical values can stand only once. Like-named read-outs stand apart in the source and are kept apart here.

Key:
mAb 1B1 = experiment: mAb inhibition ELISA with synthetic oligosaccharides, mAb 1B1; format: binding, mouse; conditions: P. aeruginosa PAO1 BAA-47 LPS or whole cell coated plates, 10 μg/ml mAb
Description: FIGS. 15A, 15B, and 15C show inhibition ELISAs of mAbs 1B1 (FIG. 15A), 3C4 (FIG. 15B) and 3B8 (FIG. 15C) with LPS (left hand panels; square markers—P. aeruginosa PAO1 BAA-47, inverted triangle markers—P. aeruginosa (wzy::Gm)(Δpa5458), diamond markers—N. meningitidis galE/lpt3 and circular markers—PBS control) or synthetic oligosaccharides representing the terminal methylated rhamnan (right hand panels; solid circle markers—pentasaccharide, open square markers—tetrasaccharide, open circle markers—trisaccharide, inverted triangle markers—disaccharide, diamond markers—disaccharide with linker, triangle markers—L-monomer, solid square markers—D-monomer) against P. aeruginosa PAO1 BAA-47 LPS. Serial dilution, as shown on the x-axis, of either LPS or synthetic oligosaccharide was combined at an equal volume with 10 μg/ml mAb. After 1 h incubation, 100 μl of this inhibition mixture was added to PAO1 BAA-47 LPS coated plates. A secondary mAb specific for the primary mAb was added and absorbance was measured after a colour reagent was added. The absorbance obtained when the mAb is no longer inhibited by additional LPS or synthetic oligosaccharide is equal to inhibition by PBS.
FIGS. 15D, 15E, and 15F show inhibition ELISAs of mAbs 1B1 (FIG. 15D), 3C4 (FIG. 15E) and 3B8 (FIG. 15F) with LPS (left hand panels; square markers—P. aeruginosa PAO1 BAA-47, inverted triangle markers—P. aeruginosa (wzy::Gm)(Δpa5458), diamond markers—N. meningitidis galE/lpt3 and circle markers—PBS control) or synthetic oligosaccharides representing the terminal methylated rhamnan (right hand panels; solid circle markers—pentasaccharide, open square markers—tetrasaccharide, open circle markers—trisaccharide, inverted triangle markers—disaccharide, diamond markers—disaccharide with linker, triangle markers—L-monomer, blue—D-monomer) against P. aeruginosa PAO1 BAA-47 whole cells. Serial dilution, as shown on the x-axis, of either LPS or synthetic oligosaccharide was combined at an equal volume with 10 μg/ml mAb. After 1 h incubation, 100 μl of this inhibition mixture was added to PAO1 BAA-47 whole cell coated plates. A secondary mAb specific for primary the mAb was added and absorbance measured after a colour reagent was added. Absorbance obtained when the mAb is no longer inhibited by additional LPS or synthetic oligosaccharide is equal to inhibition by PBS.
mAb inhibition ELISA: Wells of Nunc Maxisorp EIA plates were coated with either 1 μg of P. aeruginosa LPS in PBS overnight at 4° C. or P. aeruginosa killed whole cells in dH2O in a drying oven overnight, and then brought to RT before use. Plates were blocked with 1% BSA-PBS for 1 h at RT, and then wells were washed with PBS-T. During the blocking step, the inhibition was set-up. Either LPS or a synthetic oligosaccharide was added to a tube at either 1 mg/ml or 3 mg/ml and then a serial dilution with 1% BSA-PBS was performed, before an equal volume of mAb (1B1, 3B8 or 3C4) was added at a constant concentration of 10 μg/ml in 1% BSA-PBS, this mixture was incubated for 1 h at RT. Following washing of the EIA plate with PBS-T, 100 μl from the mixed tubes was added to the plate and allowed to incubate for 1 h at RT for LPS coated plates, or 3 h at RT for killed whole cell coated plates. Following washing with PBS-T, the appropriate AP-labeled goat anti-mouse Ig (Southern Biotech) specific for the mAb used, diluted 1:250 in 1% BSA-PBS, was added for 1 h at RT. The plates were then washed with PBS-T and developed with Phosphatase Substrate System (Kirkegaard and Perry Laboratories). After 60 min, absorbance was measured at 405 nm using a microtiter plate reader. […]

1B1 IgM = experiment: SPR binding of synthetic oligosaccharides to 1B1 IgM surface; set-up: species or system mouse; conditions: for Obs Rmax (observed maximum binding response): high density 1B1 IgM surface, 25° C., HBS-EP; for Obs Rmax (observed maximum binding response) / ka / kd: two runs per oligosaccharide
Experimental: Various concentration ranges of synthetic oligosaccharides (see Experimental) were flowed over IgM 1B1 and an irrelevant IgM, Fn 4F1. Mcat lgt2/4: control oligosaccharide.
Surface plasmon resonance (SPR): SPR binding assays were performed at 25° C. on a Biacore T200 instrument in HBS-EP running buffer (Cytiva Life Sciences, Mississauga, Canada), essentially as described previously. Briefly, approximately 13000 RUs of IgM (PA 1B1 and control Fn 4F1) were amine coupled to a CM7S sensor chip in 10 mM acetate buffer, pH 4.0 (Cytiva). Synthetic oligosaccharides were reconstituted in HBS-EP to 25 mM and a series of dilutions prepared for injection over IgM surfaces. The contact time was 60 s and the dissociation time 120 s (mono-, di-) or 180 s (tri-, tetra-, penta-). The following concentration ranges were injected: mono- (1 mM-62.5 μM), di- (200 μM-12.5 μM) and tri-, tetra- and penta- (10 μM-625 nM). Mcat lgt2/4 an oligosaccharide from Moraxella catarrhalis, served as a control and was injected at 10 μM. Surfaces were regenerated by extensive washing with HBS-EP. Reference flow cell subtracted sensorgrams were fit to a 1:1 binding model to determine binding kinetics and affinities, or affinities were determined by steady-state analysis.
Synthetic carbohydrates ranging from a monosaccharide to pentasaccharide were flowed over high density surfaces of 1B1 IgM and an irrelevant IgM, Fn 4F1.

[1] = test system: killed whole cells of P. aeruginosa strains; experiment: ELISA binding of mAbs to killed whole cells; conditions: summary statement, serotype strains and clinical isolates
Experimental: FIGS. 11A, 11B, and 11C show ELISA analysis of binding of 1B1 (FIG. 11A), 3B8 (FIG. 11B), and 3C4 (FIG. 11C) purified monoclonal antibodies (mAbs) (all at 100 μg/ml) to killed whole cells of P. aeruginosa strains NRCC #'s 6678, 6668-70, 6954-60 and negative control strains M. catarrhalis 6541 and N. meningitidis 6263 (see Table 1 for full details of strains).
ELISA: The binding of anti-P. aeruginosa A-band terminal epitope mAbs and polyclonal sera to BSA conjugates, purified LPS and to whole cells was evaluated by ELISA as described previously.

purified PAO1 LPS = experiment: mAb competition ELISA; format: binding, P. aeruginosa; conditions: PAO1 LPS coated plates; 3C4 at 62.5 μg/ml
Experimental: (§1) The plate was washed and mAb 3C4 was added at a constant concentration (62.5 μg/ml). A secondary mAb specific for mAb 3C4 was added and absorbance was measured after a colour reagent was added (line with square markers). The absorbance obtained when 3C4 was added to the plate without 1B1 competition is shown by the line with a triangle marker.
as §1, with “to” for “to the”, “3B8” for “1B1”
mAb competition ELISA: Wells of Nunc Maxisorp EIA plates were coated with 1 μg of P. aeruginosa LPS in PBS overnight at 4° C. and then brought to RT before use. Plates were blocked with 1% BSA-PBS for 1 h at RT, and then wells were washed with PBS-T. One mAb (1B1 or 3B8) was titrated and added to the plate for 1 h at RT. Following washing with PBS-T, the second mAb (3C4) was added at a pre-determined concentration and allowed to incubate for 1 h at RT. Following washing with PBS-T, AP-labeled goat anti-mouse IgG2b (Southern Biotech) specific for mAb 3C4, diluted 1:250 in 1% BSA-PBS was added for 1 h at RT. The plates were then washed with PBS-T and developed with Phosphatase Substrate System (Kirkegaard and Perry Laboratories). After 60 min absorbance was measured at 405 nm using a microtiter plate reader.

[2] = 1:1 binding model, table: two runs, text: one value per oligosaccharide, read-out: KD
[3] = 1:1 binding model, listed as Tri-

CO[C@@H]([C@H](O)[C@@H](C)O)[C@H](O)C=O [D-monosaccharide, 3-O-Methyl-D-rhamnose]
inhibition of binding of mAb 1B1 to its target LPS and killed whole cells (mAb 1B1): some evidence of inhibition

CO[C@@H]1[C@@H](O)[C@H](C)OC(O)[C@@H]1O (stereo partly drawn) [L-monosaccharide, 3-O-Methyl-L-rhamnopyranose]
inhibition of binding of mAb 1B1 to its target LPS and killed whole cells (mAb 1B1): completely ineffective in inhibition

CO[C@@H]1[C@H](O)[C@@H](O[C@H]2[C@H](OC)[C@H](O)C(O)O[C@@H]2C)O[C@H](C)[C@H]1O (stereo partly drawn) [disaccharide, 3-O-Methyl-α-D-rhamnopyranoside-(1→4)-3-O-methyl-D-rhamnopyranose]
Obs Rmax (observed maximum binding response) (1B1 IgM; listed as Di-): 14 and 15
Kd (1B1 IgM; steady-state analysis, listed as Di-, read-out: KD, steady state affinity): 85800 nM and 82500 nM
Kd (1B1 IgM; steady-state analysis, read-out: KD, steady state affinity): 84000 nM
inhibition of binding of mAb 1B1 to its target LPS and killed whole cells (mAb 1B1): some evidence of inhibition

CO[C@@H]1[C@H](O)[C@@H](O[C@H]2[C@H](OC)[C@H](O)[C@@H](O[C@H]3[C@H](OC)[C@H](O)[C@@H](O[C@H]4[C@H](OC)[C@H](O)[C@@H](O[C@H]5[C@H](OC)[C@H](O)[C@@H](O)O[C@@H]5C)O[C@@H]4C)O[C@@H]3C)O[C@@H]2C)O[C@H](C)[C@H]1O [pentasaccharide, 3-O-methyl-α-D-rhamnopyranoside-(1→4)-3-O-methyl-α-D-rhamnopyranoside-(1→4)-3-O-methyl-α-D-rhamnopyranoside-(1→4)-3-O-methyl-α-D-rhamnopyranoside-(1→4)-3-O-methyl-α-D-rhamnopyranose]
Kd (1B1 IgM; 1:1 binding model, table: two runs, text: one value per oligosaccharide, listed as Penta-, read-out: KD): 540 nM
Kd (1B1 IgM; [2]): 550 nM
ka (1B1 IgM; 1:1 binding model): 3430 s⁻¹ and 5430 s⁻¹
kd (1B1 IgM; 1:1 binding model): 0.00186 M⁻¹ s⁻¹ and 0.0019 M⁻¹ s⁻¹
Obs Rmax (observed maximum binding response) (1B1 IgM): 34
inhibition of binding of mAb 1B1 to its target LPS and killed whole cells (mAb 1B1): effectively equivalent in inhibiting

CO[C@@H]1[C@H](O)[C@@H](O[C@H]2[C@H](OC)[C@H](O)[C@@H](O[C@H]3[C@H](OC)[C@H](O)[C@@H](O[C@H]4[C@H](OC)[C@H](O)[C@@H](O)O[C@@H]4C)O[C@@H]3C)O[C@@H]2C)O[C@H](C)[C@H]1O [tetrasaccharide, 3-O-methyl-α-D-rhamnopyranoside-(1→4)-3-O-methyl-α-D-rhamnopyranoside-(1→4)-3-O-methyl-α-D-rhamnopyranoside-(1→4)-3-O-methyl-α-D-rhamnopyranose]
Kd (1B1 IgM; 1:1 binding model, table: two runs, text: one value per oligosaccharide, listed as Tetra-, read-out: KD): 650 nM
Kd (1B1 IgM; [2]): 660 nM
ka (1B1 IgM; 1:1 binding model): 5690 s⁻¹ and 5260 s⁻¹
kd (1B1 IgM; 1:1 binding model): 0.00372 M⁻¹ s⁻¹ and 0.00348 M⁻¹ s⁻¹
Obs Rmax (observed maximum binding response) (1B1 IgM): 28 and 29
inhibition of binding of mAb 1B1 to its target LPS and killed whole cells (mAb 1B1): effectively equivalent in inhibiting

CO[C@@H]1[C@H](O)[C@@H](O[C@H]2[C@H](OC)[C@H](O)[C@@H](O[C@H]3[C@H](OC)[C@H](O)[C@@H](O)O[C@@H]3C)O[C@@H]2C)O[C@H](C)[C@H]1O [trisaccharide, 3-O-methyl-α-D-rhamnopyranoside-(1→4)-3-O-methyl-α-D-rhamnopyranoside-(1→4)-3-O-methyl-α-D-rhamnopyranose]
Kd (1B1 IgM; 1:1 binding model, table: two runs, text: one value per oligosaccharide, listed as Tri-, read-out: KD): 1370 nM and 1460 nM
Kd (1B1 IgM; [2]): 1420 nM
ka (1B1 IgM; [3]): 12800 s⁻¹ and 12300 s⁻¹
kd (1B1 IgM; [3]): 0.0176 M⁻¹ s⁻¹ and 0.0179 M⁻¹ s⁻¹
Obs Rmax (observed maximum binding response) (1B1 IgM): 21
inhibition of binding of mAb 1B1 to its target LPS and killed whole cells (mAb 1B1): effectively equivalent in inhibiting
inhibition of binding of mAb 1B1 to its target LPS and killed whole cells (mAb 1B1; listed as 3-O-methyl rhamnan trisaccharide): effectively inhibited

B1: 3B8: mouse IgM monoclonal antibody to the A-PS terminus; VH SEQ ID NO: 13, VL SEQ ID NO: 17 (antibody, V domains shown)
VH: EIQLQQSGPELVKPGASVKVSCKASGYSFTDYNMYWVKQSHGKSLEWVGYIDPYNGGTTYNQKFKGKATLTVDKSSSTAFMHLNSLTSEDSAVYYCAKGGYRYDAWFAYWGQGTLVTVSA
VL: DAVMTQTPLSLPVSLGDHASISCRSSQSLENNNGNTYLNWYLQKPGQSPQLLIYRVSNRFSGVLDRFSGSGSGTDFTLKISRVEAEDLGVYFCLQVTHVPWTFGGGTKLEIK
range of P. aeruginosa strains recognised [1]: recognition restricted to the wt serotype 5 strains PAO1 BAA-47 and 5937
epitope relation in competition ELISA with mAb 3C4 (purified PAO1 LPS): recognised similar overlapping epitopes
